Results published in ChEMBL document CHEMBL5325404, “Identification of inhibitors as drug candidates against Chagas disease” (Eur J Med Chem, 2023).

Key:
Trypanosoma cruzi = assay: Antitrypanosomal activity against Trypanosoma cruzi Y trypomastigotes infected in monkey LLC-MK2 cells assessed as parasite growth inhibition incubated for 24 hrs by resazurin dye based microplate reader assay; format: functional, organism-based
[1] = Cytotoxicity against mouse NCTC clone 929 cells incubated for 48 hrs by MTT spectrophotometric assay; format: toxicity, cell-based; conditions: NCTC clone 929 (L929) cells
[2] = Selectivity index, ratio of CC50 for cytotoxicity against mouse NCTC clone 929 cells to IC50 for antitrypanosomal activity against Trypanosoma cruzi Y trypomastigotes infected in monkey LLC-MK2 cells assessed as parasite growth inhibition; format: toxicity, cell-based; conditions: read-out: Ratio CC50/IC50
[3] = Trypanosoma cruzi, Y, LLC-MK2, 24 h, read-out: IC50

| SMILES | IC50 (Trypanosoma cruzi) | IC50 (Trypanosoma cruzi; [3]) | CC50 at 48 h [1] | selectivity ratio [2] |
| --- | --- | --- | --- | --- |
| CCOc1ccccc1C(=O)NCC(=O)N1CCC[C@@H](c2nnc3n2CCCCC3)C1 | Not Active |  |  |  |
| CCN(CCO)c1nc(Nc2cc(OC)ccc2OC)c2cnn(-c3ccccc3)c2n1 | Not Active |  |  |  |
| Cc1nn(C)c2[nH]c(=O)c(CCC(=O)NC[C@@H]3CCCc4ccccc43)c(C)c12 | Not Active |  |  |  |
| CC[C@]1(c2ccccc2)NC(=O)N(NC(=O)CSc2nc(C)nc3sc(C)c(C)c23)C1=O |  | 13.6 µM | > 200 µM | > 14.7 |
| OCCCNc1nc(Nc2ccc(F)cc2)c2cnn(-c3ccccc3)c2n1 |  | 14.8 µM | 39.2 µM | 2.6 |
| Cc1ccc2nc(NC(=O)[C@H]3CCCN3S(=O)(=O)c3cccc4nsnc34)sc2c1 | Not Active |  |  |  |
| CC(C)Nc1cc(C(=O)c2cc(F)ccc2O)cn2c(=O)c3ccccc3nc12 | Not Active |  |  |  |
| O=C(Nc1ccc(F)cc1F)[C@H](NS(=O)(=O)c1cccc2nsnc12)c1ccccc1 |  | 55.2 µM | > 200 µM | > 3.6 |
| CCCOCc1ccccc1CNC(=O)Nc1cnc2c(c1)c(C)nn2C |  | 68.9 µM | 66.9 µM | 1 |
| Cc1cn([C@@H](C)c2ccccc2)nc1NC(=O)CCc1nc(C(C)C)no1 | Not Active |  |  |  |
| OCCCNc1nc(Nc2ccccc2)c2cnn(-c3ccccc3)c2n1 |  | 7.1 µM | 85.2 µM | 12 |
| Cc1ccccc1Nc1nc(N(C)CCO)nc2c1cnn2-c1ccccc1 |  | 12.8 µM | 25 µM | 2 |
| O=C(Cn1ccnc1[N+](=O)[O-])NCc1ccccc1 [BENZNIDAZOLE] |  | 18.4 µM | > 200 µM | > 10.7 |

More lines, main results first:

| IC50 (Trypanosoma cruzi) | IC50 (Trypanosoma cruzi; [3]) | SMILES | CC50 at 48 h [1] | selectivity ratio [2] |
| --- | --- | --- | --- | --- |
| Not Active |  | Cc1ccc(C[C@H](C)NC(=O)Nc2ccc(C)c(-n3cnnn3)c2)s1 |  |  |
| Not Active |  | Cc1ccc(-c2noc(C(=O)NCCNC(=O)COc3ccc(Cl)c(C)c3)n2)cc1 |  |  |
|  | 22.8 µM | Cc1cccc(NC(=O)[C@@H](Cc2ccccc2)NS(=O)(=O)c2cccc3nsnc23)c1 | 79.5 µM | 3.5 |
| Not Active |  | Cn1nnc2cc(C(=O)Nc3nccn3Cc3ccccc3Cl)ccc21 |  |  |
| Not Active |  | Cc1cc2nn(CC(=O)Nc3cc(F)cc(F)c3)c(=O)n2c(Nc2ccc(C)c(F)c2)n1 |  |  |
| Not Active |  | Cc1nn(C)c2[nH]c(=O)c(/C=C/C(=O)NCCc3ccc(Cl)cc3Cl)c(C)c12 |  |  |
| Not Active |  | Cc1ccc(-n2cnnn2)cc1NC(=O)N[C@H](C)c1cccc(Cl)c1 |  |  |
| Not Active |  | CCOc1ccc(CCNC(=O)C2CCN(c3ncnc4onc(C)c34)CC2)cc1 |  |  |
| Not Active |  | Cc1cc(C)cc(Nc2nc(C)cc3nn(CC(=O)Nc4ccc(C)c(F)c4)c(=O)n23)c1 |  |  |
| Not Active |  | CC(=O)c1cn(CC(=O)NCCCc2nnc3ccccn23)c2ccccc12 |  |  |
| Not Active |  | COc1ccc(C)cc1NC(=O)Cn1nc2cc(C)nc(Nc3ccc(F)cc3)n2c1=O |  |  |
| Not Active |  | COc1ccc2nc(NC(=O)CN(C)S(=O)(=O)c3cccc4nsnc34)sc2c1 |  |  |
|  | 9 µM | Cc1cc(C)c2cc(C(=O)Nc3ccccc3-n3cncn3)[nH]c2c1 | 80.9 µM | 8.9 |
| Not Active |  | Cc1ccc(NC(=O)NC(=O)[C@@H](C)Sc2nncn2Cc2ccco2)c(C)c1 |  |  |
|  | 37.8 µM | Cc1ccc(-n2nnnc2S[C@@H](C)C(=O)NCC(=O)Nc2ccc(F)c(F)c2F)c(C)c1 | 52.8 µM | 1.4 |
|  | 10.1 µM | COc1ccc(OC)c(Nc2nc(NCCCO)nc3c2cnn3-c2ccccc2)c1 | > 200 µM | > 19.8 |
|  | 32.1 µM | COc1ccccc1OCC#CCNS(=O)(=O)c1ccc(Cl)c(Cl)c1 | 128 µM | 4 |
| Not Active |  | Cc1cc(C)c2cc(C(=O)NCc3ccccc3Cn3cncn3)[nH]c2c1 |  |  |
| Not Active |  | Cc1ccc(NC(=O)Cn2nc3cc(C)nc(Nc4ccc(F)c(C)c4)n3c2=O)cc1 |  |  |
| Not Active |  | Cc1ccc(-n2nnnc2S[C@@H](C)C(=O)NC(=O)Nc2ccccc2)cc1 |  |  |
